Measurements as given in BindingDB's records for doi:10.1021/np400148e (University of Eastern Piedmont, 2013).

Molecular target: Integrase (Human immunodeficiency virus 1, UniProt Q76353)
Assay: Inhibition of HIV-1 integrase

IC50: 40 µM
Compound: COc1cc(C=CC(=O)CC(=O)C=Cc2ccc(O)c(OC)c2)ccc1O
